Reference: patent US11643424B2, “Cardiopathy-reducing phosphodiester lipids” (Signpath Pharma, Inc., priority 2018, dated 2023)
Read-outs that look alike come from different tables or passages of the source.

Assays:
[1] = system: Moxifloxacin-induced QTc prolongation; assay: Cardiac response testing: protection against Moxifloxacin-induced QTc prolongation (ECG telemetry); format: in vivo, adult male Hartley guinea pigs; conditions: for inhibition in vivo at 2 mg/kg: Cavia porcellus, po; for Maximal prolongation: QTc; for Onset of protection / Time of maximal protection / Duration of complete protection: single oral 2 mg/kg test compound with oral moxifloxacin; for Duration of complete protection: 6 h recording
Experimental: Efficacy evaluation of the compounds of the present invention involved ECG measurements of adult male Hartley guinea pigs wherein PR, QRS, QT, QTc, JT, RR were recorded. In typical experiments, subcutaneous Kaha TR50B bio potential telemeters were surgically implanted in adult male Hartley guinea pigs weighing 300 to 350 g at enrollment. One lead was sutured to the apex of the heart, while another was sutured to the side of the aorta. The animals were allowed to recover from surgery for 5 days prior to being returned to the testing colony. Following recovery, animals were subjected to two rounds of evaluation as follows:
The animals were then returned to their housing to washout the drug over 5 to 7 days.
ECGs were acquired continuously for 6 hours. The animals were then returned to their housing to washout the drug over 5 to 7 days.
ECG analysis over 5 minutes pre-dose and 6 hours post dose consisted in was automated based on pattern recognition algorithms. The analyzed data were binned into 5-minute segments. Intervals such as PR, QRS, QT, QTc, JT and RR were analyzed automatically using AD Instruments LabChart Pro v8. The accuracy of the measurements was verified manually using digital cursors by randomly selecting 3 to 5 segments at any given time postdose. […] The frequency of arrhythmia was quantified and expressed as “% of ECG time spent in abnormal sinus rhythm over entire duration of the recording”.

AV block = assay: Drug-induced AV block: intravenous Fingolimod and/or verapamil, without and with oral 14:0 lyso PG (ECG, PR intervals); format: in vivo, guinea pigs
Experimental: To test this hypothesis, guinea pigs were instrumented (subcutaneous ECG leads) and exposed to increasing intravenous doses of Fingolimod and/or verapamil, without and with an oral dose of 14:0 lyso PG. ECG signals were recorded continuously for 2 hours post-dose for the AV blockers Fingolimod and verapamil. PR intervals were measured following the infusion of Fingolimod. Measurements of PR were stopped when the P wave disconnected from the QRS complexes, indicating 3rd degree AV block.
Guinea pigs exposed to an intravenous infusion of Fingolimod alone transitioned to 1st degree AV block as of a dose of 15 μg/kg, which rapidly progressed to a Mobitz Type-1, 2nd-degree AV block at 20 μg/kg, and finally progressed to 3rd degree AV block as of a dose of 23 μg/kg.
The cohort of guinea pigs exposed to verapamil received an i.v. injection of 0.5 mg/kg, followed 60 minutes later by an intravenous infusion of Fingolimod. A 1st-degree AV block appeared at a dose of 7 μg/kg, changed to a Mobitz-Type-1 2nd degree AV block at 10 μg/kg, and transitioned to 3rd-degree dissociation between P waves and QRS complexes as of 45 μg/kg.
The third cohort of animals received an initial oral gavage of 1.0 mg/kg 14:0 lyso PG, followed 60 minutes later by an intravenous dose of 0.5 mg/kg verapamil. Sixty (60) minutes post-verapamil, Fingolimod was infused into the animals as described above. […] A Mobitz-Type-2 AV block appeared in 2 out of 6 animals with P-QRS dissociation observed at a dose of 51 μg/kg in those two animals, and at 300 μg/kg in the rest of the animals in the cohort.

QTc prolongation = QTc prolongation by increasing oral doses of moxifloxacin, without or with concomitant 14:0 lyso PG
[2] = 1 h, read-out: Protection at 1 h post dose
[3] = 2 h, read-out: Protection at 2 h post dose
[4] = 4 h, read-out: Protection at 4 h post dose
[5] = 6 h, read-out: Protection at 6 h post dose
[6] = test compound 2 mg/kg oral given with moxifloxacin
[7] = i.v. verapamil 0.5 mg/kg 60 minutes before Fingolimod infusion
[8] = intravenous infusion of Fingolimod alone
[9] = oral 1.0 mg/kg 14:0 lyso PG, then verapamil 0.5 mg/kg i.v., then Fingolimod infusion

Structure (SMILES): CCCCCCCCCCCCCCCC1OCC(COP(=O)([O-])OC[C@@H](COC(=O)CCCCCCCCCCCCC)OC(=O)CCCCCCCCCCCCC)O1.[Na+] (stereo partly drawn) [Compound 5, Sodium (R)-2,3-bis(tetradecanoyloxy)propyl ((2-pentadecyl-1,3-dioxolan-4-yl)methyl) Phosphate]
- inhibition in vivo at 2 mg/kg [1, 2]: 35%
- inhibition in vivo at 2 mg/kg [1, 3]: 113%
- inhibition in vivo at 2 mg/kg [1, 4]: 126%
- inhibition in vivo at 2 mg/kg [1, 5]: 176%
- Maximal prolongation [1, 6]: 0 ms
- Onset of protection [1]: 2 h
- Time of maximal protection [1]: 2 h
- Duration of complete protection [1]: 6 h

Structure (SMILES): COc1c(N2C[C@@H]3CCCN[C@@H]3C2)c(F)cc2c(=O)c(C(=O)O)cn(C3CC3)c12 [Moxifloxacin, reference compound]
- Maximal prolongation ([1]; Moxifloxacin alone, column head 40 mg/kg): 29 ms

Structure (SMILES): CCCCCCCCCCCCCC(=O)OC[C@H](COP(=O)([O][MgH])OCC(COC(=O)OCC)OC(=O)OCC)OC(=O)CCCCCCCCCCCCC (stereo partly drawn) [Compound 11, calcium-2,3-bis((ethoxycarbonyl)oxy)propyl ((R)-2,3-bis(tetradecanoyloxy)propyl) Phosphate]
- inhibition in vivo at 2 mg/kg ([1]; 1 h, read-out: Protection at 1 h post dose, percent of Moxifloxacin effect, single oral 2 mg/kg test compound concomitantly with oral moxifloxacin 20 mg/kg, 1 h post dose): 83%
- inhibition in vivo at 2 mg/kg ([1]; 2 h, read-out: Protection at 2 h post dose, percent of Moxifloxacin effect, single oral 2 mg/kg test compound concomitantly with oral moxifloxacin 20 mg/kg, 2 h post dose): 94%
- inhibition in vivo at 2 mg/kg ([1]; 4 h, read-out: Protection at 4 h post dose, percent of Moxifloxacin effect, single oral 2 mg/kg test compound concomitantly with oral moxifloxacin 20 mg/kg, 4 h post dose): 91%
- inhibition in vivo at 2 mg/kg ([1]; 6 h, read-out: Protection at 6 h post dose, percent of Moxifloxacin effect, single oral 2 mg/kg test compound concomitantly with oral moxifloxacin 20 mg/kg, 6 h post dose): 116%
- Maximal prolongation ([1]; test compound 2 mg/kg oral given with moxifloxacin, 2 mg/kg): 8 ms
- Onset of protection [1]: 1 h
- Time of maximal protection [1]: 2 h
- Duration of complete protection [1]: 6 h

Structure (SMILES): CCCCCCCCCCCCCC(=O)OC[C@H](COP(=O)([O-])OCC(COC(=O)C(C)C)OC(=O)C(C)C)OC(=O)CCCCCCCCCCCCC.[Na+] (stereo partly drawn) [Compound 9, Sodium 2,3-bis(isobutyryloxy)propyl ((R)-2,3-bis(tetradecanoyloxy)propyl) Phosphate]
- inhibition in vivo at 2 mg/kg [1, 2]: 91%
- inhibition in vivo at 2 mg/kg [1, 3]: 94%
- inhibition in vivo at 2 mg/kg [1, 4]: 100%
- inhibition in vivo at 2 mg/kg [1, 5]: 116%
- Maximal prolongation [1, 6]: 3 ms
- Onset of protection [1]: 1 h
- Time of maximal protection [1]: 2 h
- Duration of complete protection [1]: 6 h

Structure (SMILES): CCCCCCCCc1ccc(CCC(N)(CO)CO)cc1 [Fingolimod]
- Fingolimod dose at 1st-degree AV block (AV block; [7]): 0.007 mg/kg
- Fingolimod dose at 3rd-degree dissociation between P waves and QRS complexes (AV block; [7]): 0.045 mg/kg
- Fingolimod dose at Mobitz-Type-1 2nd degree AV block (AV block; [7]): 0.01 mg/kg
- Fingolimod dose at 1st degree AV block (AV block; [8]): 0.015 mg/kg
- Fingolimod dose at 3rd degree AV block (AV block; [8]): 0.023 mg/kg
- Fingolimod dose at Mobitz Type-1, 2nd-degree AV block (AV block; [8]): 0.02 mg/kg

Structure (SMILES): CCCCCCCCCCCCCC(=O)OC[C@H](COP(=O)([O-])OCC(COC(=O)OCC)OC(=O)OCC)OC(=O)CCCCCCCCCCCCC.[Na+] (stereo partly drawn) [Compound 2, Sodium 2,3-bis((ethoxycarbonyl)oxy)propyl ((R)-2,3-bis (tetra decanoyloxy)propyl) Phosphate]
- inhibition in vivo at 2 mg/kg [1, 2]: 95%
- inhibition in vivo at 2 mg/kg [1, 3]: 88%
- inhibition in vivo at 2 mg/kg [1, 4]: 22%
- inhibition in vivo at 2 mg/kg [1, 5]: 90%
- Maximal prolongation [1, 6]: 4 ms
- Onset of protection [1]: 1 h
- Time of maximal protection [1]: 2 h
- Duration of complete protection [1]: 4 h

Structure (SMILES): CCCCCCCCCCCCCC(=O)OC[C@H](COP(=O)([O-])OCC(COC(=O)CC(C)C)OC(=O)CC(C)C)OC(=O)CCCCCCCCCCCCC.[Na+] (stereo partly drawn) [Compound 8, Sodium 2,3-bis((3-methylbutanoyl)oxy)propyl ((R)-2,3-bis(tetradecanoyloxy)propyl) Phosphate]
- inhibition in vivo at 2 mg/kg [1, 2]: 74%
- inhibition in vivo at 2 mg/kg [1, 3]: 97%
- inhibition in vivo at 2 mg/kg [1, 4]: 100%
- inhibition in vivo at 2 mg/kg [1, 5]: 132%
- Maximal prolongation [1, 6]: 2 ms
- Onset of protection [1]: 1 h
- Time of maximal protection [1]: 2 h
- Duration of complete protection [1]: 6 h

Structure (SMILES): CCCCCCCCCCCCCC(=O)OC[C@H](COP(=O)([O-])OCC(COC(C)=O)OC(C)=O)OC(=O)CCCCCCCCCCCCC.[Na+] (stereo partly drawn) [Compound 1, Sodium (R)-2,3-bis(tetradecanoyloxy)propyl (2,3-diacetoxypropyl) Phosphate]
- inhibition in vivo at 2 mg/kg [1, 2]: 118%
- inhibition in vivo at 2 mg/kg [1, 3]: 122%
- inhibition in vivo at 2 mg/kg [1, 4]: 100%
- inhibition in vivo at 2 mg/kg [1, 5]: 116%
- Maximal prolongation [1, 6]: 0 ms
- Onset of protection [1]: 1 h
- Time of maximal protection [1]: 2 h
- Duration of complete protection [1]: 6 h

Structure (SMILES): CCCCCCCCCCCCCC(=O)OC[C@@H](O)COP(=O)(O)OCC(O)CO (mixture of isomers) [14:0 lyso PG, 1-myristoyl-2-hydroxy-sn-glycero-3-phospho-(1′-rac-glycerol)]
- Fingolimod dose at P-QRS dissociation, rest of the animals in the cohort (AV block; [9]): 0.3 mg/kg
- animals in which a Mobitz-Type-2 AV block appeared (AV block; [9]): 2 out of 6
- Fingolimod dose at P-QRS dissociation, the two animals with Mobitz-Type-2 AV block (AV block; oral 1.0 mg/kg 14:0 lyso PG, then verapamil 0.5 mg/kg i.v., then Fingolimod infusion, 2 out of 6 animals): 0.051 mg/kg
- Fingolimod dose at which 1st-degree AV block appeared (AV block; oral gavage 1.0 mg/kg 14:0 lyso PG, 60 min later i.v. verapamil 0.5 mg/kg, 60 min later Fingolimod infusion): 0.2 mg/kg
- shift in the QTc-dose response of Moxifloxacin (QTc prolongation; concomitant dose of 14:0 lyso PG): statistically significant right-shift
- changes in QTc (QTc prolongation; concomitant dose of 14:0 lyso PG with moxifloxacin): no, or very little, changes in QTc

Structure (SMILES): CCCCCCCCCCCCCC(=O)OC[C@H](COP(=O)([O][MgH])OCC(COC(=O)OCC)OC(=O)OCC)OC(=O)CCCCCCCCCCCCC (stereo partly drawn) [Compound 10, magnesium-2,3-bis((ethoxycarbonyl)oxy)propyl((R)-2,3-bis(tetradecanoyloxy)propyl) Phosphate]
- Protection at 1 h post dose ([1]; percent of Moxifloxacin effect, single oral 2 mg/kg test compound concomitantly with oral moxifloxacin 20 mg/kg, 1 h post dose): 83%
- Onset of protection [1]: 1 h
- Time of maximal protection [1]: 2 h
- Duration of complete protection [1]: 6 h

Structure (SMILES): CCCCCCCCCCCCCC(=O)OC[C@H](COP(=O)([O-])OCC1COC(CCCCC)O1)OC(=O)CCCCCCCCCCCCC.[Na+] (stereo partly drawn) [Compound 6, Sodium (R)-2,3-bis(tetradecanoyloxy)propyl ((2-pentyl-1,3-dioxolan-4-yl)methyl) Phosphate]
- inhibition in vivo at 2 mg/kg [1, 2]: 74%
- inhibition in vivo at 2 mg/kg [1, 3]: 110%
- inhibition in vivo at 2 mg/kg [1, 4]: 115%
- inhibition in vivo at 2 mg/kg [1, 5]: 138%
- Maximal prolongation [1, 6]: 3 ms
- Onset of protection [1]: 1 h
- Time of maximal protection [1]: 2 h
- Duration of complete protection [1]: 6 h

Structure (SMILES): CCCCCCCCCCCCCCCCCC1OCC(COP(=O)([O-])OC[C@@H](COC(=O)CCCCCCCCCCCCC)OC(=O)CCCCCCCCCCCCC)O1.[Na+] (stereo partly drawn) [Compound 4, Sodium (R)-2,3-bis (tetradecanoyloxy)propyl ((2-heptadecyl-1,3-dioxolan-4-yl)methyl) Phosphate]
- inhibition in vivo at 2 mg/kg [1, 2]: 95%
- inhibition in vivo at 2 mg/kg [1, 3]: 88%
- inhibition in vivo at 2 mg/kg [1, 4]: 22%
- inhibition in vivo at 2 mg/kg [1, 5]: 90%
- Maximal prolongation [1, 6]: 8 ms
- Onset of protection [1]: 1 h
- Time of maximal protection [1]: 2 h
- Duration of complete protection [1]: 4 h

Structure (SMILES): CCCCCCCCCCCCCC(=O)OC[C@H](COP(=O)([O-])OCC(COC(=O)CCC)OC(=O)CCC)OC(=O)CCCCCCCCCCCCC.[Na+] (stereo partly drawn) [Compound 7, Sodium 2,3-bis(butyryloxy)propyl ((R)-2,3-bis(tetradecanoyloxy)propyl) Phosphate]
- inhibition in vivo at 2 mg/kg [1, 2]: 83%
- inhibition in vivo at 2 mg/kg [1, 3]: 100%
- inhibition in vivo at 2 mg/kg [1, 4]: 119%
- inhibition in vivo at 2 mg/kg [1, 5]: 147%
- Maximal prolongation [1, 6]: 4 ms
- Onset of protection [1]: 1 h
- Time of maximal protection [1]: 2 h
- Duration of complete protection [1]: 6 h
